# Values of other authors in patent publication US20120101390A1, “Multi-Modal Imaging for Diagnosis of Early Stage Epithelial Cancers” (priority 2010, published 2012).
# Biological target: T1, integrin αvβ3 (Homo sapiens, UniProt P05106+P06756)
# T1 construct: integrin αvβ3-positive U87MG xenograft models; endogenous in cells; host or cells: U87MG (tumour xenograft)
# Conditions: integrin αvβ3-positive U87MG xenograft models
# T1 sequence (P06756 31-889 limits assumed): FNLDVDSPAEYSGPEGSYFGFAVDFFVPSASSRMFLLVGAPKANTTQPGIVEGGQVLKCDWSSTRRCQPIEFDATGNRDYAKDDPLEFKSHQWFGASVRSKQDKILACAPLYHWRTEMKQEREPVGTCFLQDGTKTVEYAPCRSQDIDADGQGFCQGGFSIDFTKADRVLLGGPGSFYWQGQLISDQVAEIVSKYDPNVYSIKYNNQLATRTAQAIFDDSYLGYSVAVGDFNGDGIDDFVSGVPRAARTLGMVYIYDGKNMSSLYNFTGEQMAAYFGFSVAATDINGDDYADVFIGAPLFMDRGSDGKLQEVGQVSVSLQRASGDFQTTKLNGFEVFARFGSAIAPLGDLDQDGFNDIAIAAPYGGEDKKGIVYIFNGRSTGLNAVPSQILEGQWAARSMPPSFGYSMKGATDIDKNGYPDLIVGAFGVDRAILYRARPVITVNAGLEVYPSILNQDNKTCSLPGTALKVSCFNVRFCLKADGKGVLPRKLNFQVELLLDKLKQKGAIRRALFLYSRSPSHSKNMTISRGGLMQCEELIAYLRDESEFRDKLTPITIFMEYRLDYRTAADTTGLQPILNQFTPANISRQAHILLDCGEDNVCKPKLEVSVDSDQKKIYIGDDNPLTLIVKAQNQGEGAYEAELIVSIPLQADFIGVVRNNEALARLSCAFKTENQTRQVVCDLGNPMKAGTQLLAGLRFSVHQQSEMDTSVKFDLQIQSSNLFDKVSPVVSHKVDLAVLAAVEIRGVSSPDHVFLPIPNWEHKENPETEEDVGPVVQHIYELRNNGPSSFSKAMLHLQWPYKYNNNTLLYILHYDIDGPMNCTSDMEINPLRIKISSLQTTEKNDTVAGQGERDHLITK
# T1 sequence (P06756 891-1048 limits assumed): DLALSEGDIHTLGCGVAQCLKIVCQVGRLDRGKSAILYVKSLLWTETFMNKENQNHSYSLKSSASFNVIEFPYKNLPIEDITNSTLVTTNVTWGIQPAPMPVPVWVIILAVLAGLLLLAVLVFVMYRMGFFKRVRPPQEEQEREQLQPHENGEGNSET
# T1 sequence (P05106 27-788): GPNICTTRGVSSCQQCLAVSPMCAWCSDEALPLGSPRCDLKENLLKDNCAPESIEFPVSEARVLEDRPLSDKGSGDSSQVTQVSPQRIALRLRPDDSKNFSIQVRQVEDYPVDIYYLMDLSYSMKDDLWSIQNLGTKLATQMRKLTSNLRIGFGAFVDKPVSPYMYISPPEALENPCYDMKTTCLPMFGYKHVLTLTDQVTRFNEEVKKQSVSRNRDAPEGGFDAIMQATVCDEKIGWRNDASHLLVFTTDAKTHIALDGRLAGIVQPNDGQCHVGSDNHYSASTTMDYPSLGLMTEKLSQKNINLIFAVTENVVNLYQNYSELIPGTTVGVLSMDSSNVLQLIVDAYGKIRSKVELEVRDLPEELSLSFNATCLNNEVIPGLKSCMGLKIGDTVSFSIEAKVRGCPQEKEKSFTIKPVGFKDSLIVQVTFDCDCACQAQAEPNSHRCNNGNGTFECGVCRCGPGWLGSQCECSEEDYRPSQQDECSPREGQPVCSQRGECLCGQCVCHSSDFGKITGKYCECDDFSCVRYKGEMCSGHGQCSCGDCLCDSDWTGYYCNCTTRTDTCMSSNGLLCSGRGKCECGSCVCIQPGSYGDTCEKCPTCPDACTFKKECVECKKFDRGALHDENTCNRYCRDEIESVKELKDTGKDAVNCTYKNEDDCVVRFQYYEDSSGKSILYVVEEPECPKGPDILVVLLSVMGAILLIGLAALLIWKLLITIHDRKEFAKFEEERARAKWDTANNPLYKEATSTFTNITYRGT
row,Substance,binding relative to the monomeric counterpart
1,E-[G-G-G-c(RGDfK)]2,stronger binding
2,E-[c(RGDfK)]2,stronger binding
3,E-{G-[c(RGDfK)]2}2,stronger binding
